Data: patent US20250009902A1, “ARTIFICIAL ENZYME-BACTERIA SYSTEM AND USES THEREOF” (NATIONAL UNIVERSITY OF SINGAPORE, priority 2021, published 2025)

Key:
HT-29 cells [1] = system: HT-29 cells
Protocol: (§1) For the protection of cells from H2O2 induced oxidative stress, different concentrations of BL@B-SA50 were cultured with HT-29 cells in the absence or presence of H2O2 (200 μM) for 24 hours. Relative cell viabilities were tested by the 3-(4,5-dimethylthiazol-2-yl)-2,5-diphenyltetrazolium bromide (MTT) assay.
(§2) The concentrations of nanomaterials in different measurements of MTT assays were 0.625 μg/mL while that for confocal microscopy and flow cytometry were both 2.5 μg/mL. The viabilities of HT-29 cells without treatment were defined as 100%, while the ROS content of HT-29 cells without treatment was defined as 1.

HT-29 cells [2] = assay: HT-29 cell viability, MTT assay, with or without H2O2; conditions: 200 μM H2O2, MTT; H2O2 alone approximately 20%; FIG. 4k
Protocol: as §1, §2

## Bifidobacterium longum [BL]
HT-29 cells [1]
  relative cell viability of HT29 cells (cytotoxicity / growth): could promote the growth of HT29
HT-29 cells [2]
  viability of HT29 cells exposed to H2O2: also enhanced
